Assay results taken from BindingDB's records for doi:10.7270/Q2NZ862K (Nmmlsc, 2007).

The compounds below were run against T1, fMet-Leu-Phe receptor (Homo sapiens, UniProt P21462) (assay: formyl peptide receptor binders – dose response (AID 519)).
T1 sequence (P21462 whole entry): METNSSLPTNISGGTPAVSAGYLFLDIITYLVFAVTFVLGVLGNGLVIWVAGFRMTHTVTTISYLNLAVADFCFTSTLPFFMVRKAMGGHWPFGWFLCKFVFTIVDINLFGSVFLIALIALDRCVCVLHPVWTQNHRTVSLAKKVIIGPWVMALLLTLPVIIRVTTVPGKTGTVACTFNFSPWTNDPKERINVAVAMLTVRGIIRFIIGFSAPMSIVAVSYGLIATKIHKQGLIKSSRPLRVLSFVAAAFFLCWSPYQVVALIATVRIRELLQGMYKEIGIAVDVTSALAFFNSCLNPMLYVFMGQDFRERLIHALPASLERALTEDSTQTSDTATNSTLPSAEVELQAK

Row | SMILES | Ki
1 | CC1=NC(C)=C(C#N)C(c2ccc3ncccc3c2)C1C#N (stereo not given) | > 43.7 µM
2 | COc1cccc2cc(C(=O)C3C(=O)C(=O)N(Cc4ccco4)C3c3cccnc3)oc12 (stereo not given) [1-(2-furanylmethyl)-4-hydroxy-3-[(7-methoxy-2-benzofuranyl)-oxomethyl]-2-(3-pyridinyl)-2H-pyrrol-5-one] | > 43.7 µM
3 | COCCN1C(=O)C(=O)C(C(=O)c2cccs2)C1c1ccccc1 (stereo not given) [1-(2-methoxyethyl)-4-oxidanyl-2-phenyl-3-thiophen-2-ylcarbonyl-2H-pyrrol-5-one] | > 43.7 µM
4 | O=C1C(=O)N(CCN2CCOCC2)C(c2ccccc2)C1C(=O)c1cccs1 (stereo not given) [1-(2-morpholin-4-ylethyl)-4-oxidanyl-2-phenyl-3-thiophen-2-ylcarbonyl-2H-pyrrol-5-one] | > 43.7 µM
5 | Cc1ccc(C(=O)C2C(=O)C(=O)N(CCCn3ccnc3)C2c2ccc(OC(C)C)cc2)o1 (stereo not given) [1-(3-imidazol-1-ylpropyl)-3-(5-methylfuran-2-yl)carbonyl-4-oxidanyl-2-(4-propan-2-yloxyphenyl)-2H-pyrrol-5-one] | > 43.7 µM
6 | C=CCOc1ccc(C2C(C(=O)c3cccs3)C(=O)C(=O)N2c2nnc(C)s2)cc1 (stereo not given) [1-(5-methyl-1,3,4-thiadiazol-2-yl)-4-oxidanyl-2-(4-prop-2-enoxyphenyl)-3-thiophen-2-ylcarbonyl-2H-pyrrol-5-one] | 26.5 µM
7 | Cc1ccc(C(=O)C2C(=O)C(=O)N(Cc3ccccc3)C2c2cccnc2)o1 (stereo not given) [1-benzyl-3-hydroxy-4-[(5-methylfuran-2-yl)carbonyl]-5-(pyridin-3-yl)-2,5-dihydro-1H-pyrrol-2-one] | > 43.7 µM
8 | COc1ccc(OC)c(C2C(C(=O)c3cccs3)C(=O)C(=O)N2c2cc(C)on2)c1 (stereo not given) [2-(2,5-dimethoxyphenyl)-1-(5-methyl-1,2-oxazol-3-yl)-4-oxidanyl-3-thiophen-2-ylcarbonyl-2H-pyrrol-5-one] | > 43.7 µM
9 | O=C1C(=O)N(c2ncccn2)C(c2ccc(Cl)c(Cl)c2)C1C(=O)c1ccco1 (stereo not given) [2-(3,4-dichlorophenyl)-3-(furan-2-carbonyl)-4-hydroxy-1-pyrimidin-2-yl-2H-pyrrol-5-one] | > 43.7 µM
10 | COc1ccc(C2C(C(=O)c3cccs3)C(=O)C(=O)N2c2nnc(C)s2)cc1OC (stereo not given) [2-(3,4-dimethoxyphenyl)-1-(5-methyl-1,3,4-thiadiazol-2-yl)-4-oxidanyl-3-thiophen-2-ylcarbonyl-2H-pyrrol-5-one] | > 43.7 µM
11 | COc1ccc(C2C(C(=O)c3ccco3)C(=O)C(=O)N2CCc2ccccc2)cc1OC (stereo not given) [2-(3,4-dimethoxyphenyl)-3-(furan-2-carbonyl)-4-hydroxy-1-(2-phenylethyl)-2H-pyrrol-5-one] | 24.1 µM
12 | COc1ccc(C2C(C(=O)c3ccco3)C(=O)C(=O)N2Cc2cccnc2)cc1OC (stereo not given) [2-(3,4-dimethoxyphenyl)-3-(furan-2-carbonyl)-4-hydroxy-1-(pyridin-3-ylmethyl)-2H-pyrrol-5-one] | > 43.7 µM
13 | COc1cc(C2C(C(=O)c3ccco3)C(=O)C(=O)N2c2cc(C)on2)cc(Br)c1O (stereo not given) [2-(3-bromanyl-5-methoxy-4-oxidanyl-phenyl)-3-(furan-2-ylcarbonyl)-1-(5-methyl-1,2-oxazol-3-yl)-4-oxidanyl-2H-pyrrol-5-one] | 31.2 µM
14 | O=C1C(=O)N(c2ncccn2)C(c2cccc(Cl)c2)C1C(=O)c1ccco1 (stereo not given) [2-(3-chlorophenyl)-3-(furan-2-carbonyl)-4-hydroxy-1-pyrimidin-2-yl-2H-pyrrol-5-one] | > 43.7 µM
15 | CCOc1cc(C2C(C(=O)c3ccco3)C(=O)C(=O)N2CCc2ccccc2)ccc1O (stereo not given) [2-(3-ethoxy-4-hydroxyphenyl)-3-(furan-2-carbonyl)-4-hydroxy-1-(2-phenylethyl)-2H-pyrrol-5-one] | > 43.7 µM
16 | COc1cc(C2C(C(=O)c3ccc(C)o3)C(=O)C(=O)N2Cc2cccnc2)ccc1O (stereo not given) [2-(3-methoxy-4-oxidanyl-phenyl)-3-(5-methylfuran-2-yl)carbonyl-4-oxidanyl-1-(pyridin-3-ylmethyl)-2H-pyrrol-5-one] | > 43.7 µM
17 | Cc1nc(C)c(C(=O)C2C(=O)C(=O)N(CCCn3ccnc3)C2c2ccc(Cl)cc2)s1 (stereo not given) [2-(4-chlorophenyl)-3-(2,4-dimethyl-1,3-thiazole-5-carbonyl)-4-hydroxy-1-(3-imidazol-1-ylpropyl)-2H-pyrrol-5-one] | > 43.7 µM
18 | O=C1C(=O)N(c2ncccn2)C(c2ccc(Cl)cc2)C1C(=O)c1ccco1 (stereo not given) [2-(4-chlorophenyl)-3-(furan-2-carbonyl)-4-hydroxy-1-pyrimidin-2-yl-2H-pyrrol-5-one] | > 43.7 µM
19 | CCOc1ccc(C2C(C(=O)c3cccs3)C(=O)C(=O)N2CCCn2ccnc2)cc1 (stereo not given) [2-(4-ethoxyphenyl)-1-(3-imidazol-1-ylpropyl)-4-oxidanyl-3-thiophen-2-ylcarbonyl-2H-pyrrol-5-one] | 37.4 µM
20 | COC(=O)Cc1n[nH]c2c1C(C1C=CCCC1)C(C#N)C(=N)O2 (stereo not given) [2-[6-amino-5-cyano-4-(1-cyclohex-2-enyl)-2,4-dihydropyrano[2,3-c]pyrazol-3-yl]acetic acid methyl ester] | > 43.7 µM
21 | COc1cccc(C2C(C(=O)c3cc4ccccc4o3)C(=O)C(=O)N2c2cc(C)on2)c1OC (stereo not given) [3-(1-benzofuran-2-carbonyl)-2-(2,3-dimethoxyphenyl)-4-hydroxy-1-(5-methyl-1,2-oxazol-3-yl)-2H-pyrrol-5-one] | > 43.7 µM
22 | O=C1C(=O)N(CCCN2CCOCC2)C(c2ccccn2)C1C(=O)c1cc2ccccc2o1 (stereo not given) [3-(1-benzofuran-2-carbonyl)-4-hydroxy-1-(3-morpholin-4-ylpropyl)-2-pyridin-2-yl-2H-pyrrol-5-one] | 39.7 µM

More lines, in order of falling Ki, values ahead:

Row | Ki | SMILES
23 | 23.9 µM | COc1ccc(OC)c(C2C(C(=O)c3cc4ccccc4o3)C(=O)C(=O)N2c2cc(C)on2)c1 (stereo not given) [3-(1-benzofuran-2-carbonyl)-2-(2,5-dimethoxyphenyl)-4-hydroxy-1-(5-methyl-1,2-oxazol-3-yl)-2H-pyrrol-5-one]
24 | 23 µM | O=C1C(=O)N(Cc2ccco2)C(c2ccccc2)C1C(=O)c1cccs1 (stereo not given) [1-(2-furanylmethyl)-4-hydroxy-3-[oxo(thiophen-2-yl)methyl]-2-phenyl-2H-pyrrol-5-one]
25 | 20.4 µM | COCCCN1C(=O)C(=O)C(C(=O)c2ccco2)C1c1cccc(Br)c1 (stereo not given) [2-(3-bromophenyl)-3-(furan-2-carbonyl)-4-hydroxy-1-(3-methoxypropyl)-2H-pyrrol-5-one]
26 | 20 µM | O=C1C(=O)N(Cc2ccccc2)C(c2cccnc2)C1C(=O)c1ccco1 (stereo not given) [1-Benzyl-4-(furan-2-carbonyl)-3-hydroxy-5-pyridin-3-yl-1,5-dihydro-pyrrol-2-one]
27 | 19.9 µM | CCOc1cc(C2C(C(=O)c3ccc(C)o3)C(=O)C(=O)N2CCc2ccccc2)ccc1O (stereo not given) [2-(3-ethoxy-4-hydroxyphenyl)-4-hydroxy-3-(5-methylfuran-2-carbonyl)-1-(2-phenylethyl)-2H-pyrrol-5-one]
28 | 17.7 µM | COc1cc(C2C(C(=O)c3cccs3)C(=O)C(=O)N2Cc2ccco2)cc(OC)c1OC (stereo not given) [1-(2-furanylmethyl)-4-hydroxy-3-[oxo(thiophen-2-yl)methyl]-2-(3,4,5-trimethoxyphenyl)-2H-pyrrol-5-one]
29 | 17.3 µM | COc1ccc(OC)c(C2C(C(=O)c3ccco3)C(=O)C(=O)N2CCCN2CCOCC2)c1 (stereo not given) [2-(2,5-dimethoxyphenyl)-3-(furan-2-carbonyl)-4-hydroxy-1-(3-morpholin-4-ylpropyl)-2H-pyrrol-5-one]
30 | 14 µM | O=C1C(=O)N(CCOCCO)C(c2cccs2)C1C(=O)c1cccs1 (stereo not given) [1-[2-(2-hydroxyethyloxy)ethyl]-4-oxidanyl-2-thiophen-2-yl-3-thiophen-2-ylcarbonyl-2H-pyrrol-5-one]
31 | 12.9 µM | COc1cc(C2C(C(=O)c3ccc(C)o3)C(=O)C(=O)N2CCc2ccccc2)ccc1O (stereo not given) [2-(3-methoxy-4-oxidanyl-phenyl)-3-(5-methylfuran-2-yl)carbonyl-4-oxidanyl-1-(2-phenylethyl)-2H-pyrrol-5-one]
32 | 12.4 µM | COc1ccc(CCN2C(=O)C(=O)C(C(=O)c3ccco3)C2c2cccs2)cc1OC (stereo not given) [1-[2-(3,4-Dimethoxy-phenyl)-ethyl]-4-(furan-2-carbonyl)-3-hydroxy-5-thiophen-2-yl-1,5-dihydro-pyrrol-2-one]
33 | 10 µM | CCOc1ccc(C2C(C(=O)c3ccco3)C(=O)C(=O)N2Cc2cccnc2)cc1 (stereo not given) [2-(4-ethoxyphenyl)-3-(furan-2-carbonyl)-4-hydroxy-1-(pyridin-3-ylmethyl)-2H-pyrrol-5-one]
34 | 9.6 µM | COCCCN1C(=O)C(=O)C(C(=O)c2ccco2)C1c1ccc(Br)cc1 (stereo not given) [2-(4-bromophenyl)-3-(furan-2-carbonyl)-4-hydroxy-1-(3-methoxypropyl)-2H-pyrrol-5-one]
35 | 9 µM | CCCOc1ccc(C2C(C(=O)c3ccc(C)o3)C(=O)C(=O)N2CCCn2ccnc2)cc1 (stereo not given) [1-(3-imidazol-1-ylpropyl)-3-(5-methylfuran-2-yl)carbonyl-4-oxidanyl-2-(4-propoxyphenyl)-2H-pyrrol-5-one]
36 | 8.9 µM | O=C1C(=O)N(Cc2ccccc2)C(c2ccncc2)C1C(=O)c1ccco1 (stereo not given) [1-Benzyl-4-(furan-2-carbonyl)-3-hydroxy-5-pyridin-4-yl-1,5-dihydro-pyrrol-2-one]
37 | 8.1 µM | O=C1C(=O)N(Cc2ccccc2)C(c2ccco2)C1C(=O)c1ccco1 (stereo not given) [1-Benzyl-4-(furan-2-carbonyl)-5-furan-2-yl-3-hydroxy-1,5-dihydro-pyrrol-2-one]
38 | 6.4 µM | CCOc1ccc(C2C(C(=O)c3ccco3)C(=O)C(=O)N2CCCn2ccnc2)cc1 (stereo not given) [2-(4-ethoxyphenyl)-3-(furan-2-carbonyl)-4-hydroxy-1-(3-imidazol-1-ylpropyl)-2H-pyrrol-5-one]
39 | 3.5 µM | CCCCc1c(O)n(-c2ccccc2)n(-c2ccccc2)c1=O [3,5-Dioxo-1,2-diphenyl-4-n-butylpyrazolidine]
40 | 3.3 µM | COC(=O)c1[nH]c(C)c(C(=O)C2C(=O)C(=O)N(CCN3CCOCC3)C2c2cccs2)c1C (stereo not given)
